{
  "source": "patent US5624673A",
  "about": "“Cosmetic or pharmaceutical composition containing a prunella extract” (priority 1993, dated 1997)",
  "system": "erythema caused by ultraviolet",
  "assay": "Anti-inflammatory activity on the erythema caused by ultraviolet",
  "format": "in vivo, Dunkin Hartley guinea-pigs",
  "details": "1% in hydrocerine",
  "experimental": "This is investigated using 41 female Dunkin Hartley guinea-pigs weighing 400 to 450 g, divided into 6 groups of 6 and one group of 5 guinea-pigs.\nFor one week before the start of the experiment, the animals are kept at a temperature of 20° plus or minus 1° C. and at a hygrometry of 50% plus or minus 10% and with 12 h of light per day. On the day before the experiment, the animals are carefully shaved on the back using an AESCULAP shaver equipped with a 1/10 mm comb, and then shaved gently on both sides using a Braun razor. A depilating cream is subsequently applied (to a thickness of about 2 mm) and allowed to work for 15 min.\nThe cream is removed with a wooden spatula and the guinea-pigs are then rinsed with tepid water and dried.\nThe guinea-pigs then receive the same irradiation on both sides, the area of the irradiated regions being 2 cm^2. The right side receives the test product, the product being spread beyond the 2 cm^2 so as to make it possible to observe any redness which might be due to the product and which would mask an antiphlogistic effect. The left side receives the placebo.\nApplication of the placebo to the left side enables the effect of UV to be measured under the same conditions on the zones treated with the product and on the untreated zones. This also makes it possible to see any action of the placebo and to assess, in comparison with the placebo, the zone to which the product has been applied.\nThe products are applied immediately after irradiation and then every 2 h up to 6 h after irradiation.\nThe amount applied is not measured but is spread uniformly over the whole region (about 1 mg).\nThe irradiation device used consists of a Biotronic UV312-365 mercury lamp (Vilbert-Loumat). The device for measuring the UV energy, which consists of a photoelectric cell measuring the luminous power of the UV, is fixed to a support at the center of the irradiated zone. This cell is connected to a radiometer on which the desired energy--in this case 2.16 J/cm^2 of UVB (distance from guinea-pig to lamp=20 cm)--is programmed. The lamp switches off automatically once the total amount of energy has been emitted.\nThis irradiation causes an erythema equal to 3 plus or minus 0.5 (see scale) at 6 h.\n20 min before irradiation, the animals are anesthetized with an intraperitoneal dose of 0.5 ml/kg of pentobarbital sodium.\nSix hours after irradiation, the erythema in each region is evaluated macroscopically according to the following scale:\n0 ............... no erythema\n1 ............... slight but visible erythema\n2 ............... clearly visible erythema\n3 ............... substantial erythema\nOne guinea-pig with a score of 1 according to the above notation, one guinea-pig with a score of 2 and one guinea-pig with a score of 3 are singled out after having been thoroughly evaluated as such, and are taken as standard references so that half-unit scores can be awarded. A guinea-pig not evaluated with 1 (standard reference) and not evaluated with 2 will be given a score of 1.5.\nThe results obtained are used to calculate the percentage activity according to the following formula: [formula]\nThe tested extracts according to the invention are in a concentration of 0.2% by weight in the gel. The indomethacin is in a concentration of 1% in the hydrocerine.",
  "note": "“And” between values parts separate entries of the source, which are not always exact repeats. Identical values can stand only once.",
  "data": [
    {"smiles": "COc1ccc2c(c1)c(CC(=O)O)c(C)n2C(=O)c1ccc(Cl)cc1", "note": "[Indomethacin, indomethacin]", "values": [
      {"measurement": "difference (UV+placebo)-(UV+product), individual animal", "result": "2.5 and 2 and 3"},
      {"measurement": "Erythema score, product side (individual animal)", "setting": "6 h after UVB 2.16 J/cm^2, scale 0-3", "result": "0.5 and 1 and 0"},
      {"measurement": "Erythema score, product side, mean", "setting": "SD 0.41, placebo mean 2.9, significant at 0.1% (Student t 11.18)", "result": 0.4},
      {"measurement": "difference (UV+placebo)-(UV+product), mean", "setting": "SD 0.5", "result": 2.5},
      {"measurement": "protection (percentage activity)", "setting": "significant at 0.1%", "result": 86.2, "unit": "%"}
    ]}
  ]
}
